Experiments:
CCRF-CEM = experiment: NCI human tumor cell panel: CCRF-CEM (Leukemia); type: cell-based
MOLT-4 = experiment: NCI human tumor cell panel: MOLT-4 (Leukemia); type: cell-based
RPMI-8226 = experiment: NCI human tumor cell panel: RPMI-8226 (Leukemia); type: cell-based
A549/ATCC = experiment: NCI human tumor cell panel: A549/ATCC (Non-Small Cell Lung Cancer); type: cell-based
EKVX = experiment: NCI human tumor cell panel: EKVX (Non-Small Cell Lung Cancer); type: cell-based
HOP-62 = experiment: NCI human tumor cell panel: HOP-62 (Non-Small Cell Lung Cancer); type: cell-based; settings: HOP-62, read-out: Log10 TGI (converted)
NCI-H23 = experiment: NCI human tumor cell panel: NCI-H23 (Non-Small Cell Lung Cancer); type: cell-based
HCT-116 = experiment: NCI human tumor cell panel: HCT-116 (Colon Cancer); type: cell-based
HCT-15 = experiment: NCI human tumor cell panel: HCT-15 (Colon Cancer); type: cell-based
HT29 = experiment: NCI human tumor cell panel: HT29 (Colon Cancer); type: cell-based; settings: HT-29, HT29, read-out: Log10 TGI (converted)
SW-620 = experiment: NCI human tumor cell panel: SW-620 (Colon Cancer); type: cell-based
SF-295 = experiment: NCI human tumor cell panel: SF-295 (CNS Cancer); type: cell-based
SF-539 = experiment: NCI human tumor cell panel: SF-539 (CNS Cancer); type: cell-based
SNB-19 = experiment: NCI human tumor cell panel: SNB-19 (CNS Cancer); type: cell-based
U251 = experiment: NCI human tumor cell panel: U251 (CNS Cancer); type: cell-based
LOX IMVI = experiment: NCI human tumor cell panel: LOX IMVI (Melanoma); type: cell-based
MALME-3M = experiment: NCI human tumor cell panel: MALME-3M (Melanoma); type: cell-based; settings: Malme-3M, read-out: Log10 GI50 (converted)
UACC-62 = experiment: NCI human tumor cell panel: UACC-62 (Melanoma); type: cell-based
OVCAR-3 = experiment: NCI human tumor cell panel: OVCAR-3 (Ovarian Cancer); type: cell-based
OVCAR-4 = experiment: NCI human tumor cell panel: OVCAR-4 (Ovarian Cancer); type: cell-based; settings: OVCAR-4, read-out: Log10 TGI (converted)
OVCAR-8 = experiment: NCI human tumor cell panel: OVCAR-8 (Ovarian Cancer); type: cell-based
786-0 = experiment: NCI human tumor cell panel: 786-0 (Renal Cancer); type: cell-based
ACHN = experiment: NCI human tumor cell panel: ACHN (Renal Cancer); type: cell-based
SN12C = experiment: NCI human tumor cell panel: SN12C (Renal Cancer); type: cell-based
UO-31 = experiment: NCI human tumor cell panel: UO-31 (Renal Cancer); type: cell-based
PC-3 = experiment: NCI human tumor cell panel: PC-3 (Prostate Cancer); type: cell-based
DU-145 = experiment: NCI human tumor cell panel: DU-145 (Prostate Cancer); type: cell-based
HS 578T = experiment: NCI human tumor cell panel: HS 578T (Breast Cancer); type: cell-based
MDA-N = experiment: NCI human tumor cell panel: MDA-N (Breast Cancer); type: cell-based
BT-549 = experiment: NCI human tumor cell panel: BT-549 (Breast Cancer); type: cell-based
HOP-92 = experiment: NCI human tumor cell panel: HOP-92 (Non-Small Cell Lung Cancer)
NCI-H522 = experiment: NCI human tumor cell panel: NCI-H522 (Non-Small Cell Lung Cancer)
[1] = read-out: Log10 GI50 (converted)
[2] = read-out: Log10 TGI (converted)

## OCc1ccc(-c2ccc(-c3ccc[se]3)s2)[se]1 [compound 676631]
CCRF-CEM; [1]
  GI50: > 100 µM
CCRF-CEM; [2]
  IC (TGI): > 100 µM
MOLT-4; MOLT-4, read-out: Log10 GI50 (converted)
  GI50: > 100 µM
MOLT-4; MOLT-4, read-out: Log10 TGI (converted)
  IC (TGI): > 100 µM
RPMI-8226; RPMI-8226, read-out: Log10 GI50 (converted)
  GI50: > 100 µM
RPMI-8226; RPMI-8226, read-out: Log10 TGI
  IC (TGI): > 100 µM
A549/ATCC; [1]
  GI50: 58.9 µM
A549/ATCC; [2]
  IC (TGI): > 100 µM
EKVX; [1]
  GI50: > 100 µM
EKVX; [2]
  IC (TGI): > 100 µM
HOP-62
  IC (TGI): > 100 µM
NCI-H23; NCI-H23, read-out: Log10 GI50 (converted)
  GI50: 16.6 µM
NCI-H23; NCI-H23, read-out: Log10 TGI (converted)
  IC (TGI): 38.9 µM
HCT-116; HCT-116, read-out: Log10 GI50 (converted)
  GI50: 0.0537 µM
HCT-116; HCT-116, read-out: Log10 TGI (converted)
  IC (TGI): > 100 µM
HCT-15; HCT-15, read-out: Log10 GI50 (converted)
  GI50: 27.5 µM
HCT-15; HCT-15, read-out: Log10 TGI (converted)
  IC (TGI): > 100 µM
HT29
  IC (TGI): > 100 µM
SW-620; SW-620, read-out: Log10 GI50 (converted)
  GI50: 0.355 µM
SW-620; SW-620, read-out: Log10 TGI (converted)
  IC (TGI): > 100 µM
SF-295; SF-295, read-out: Log10 GI50 (converted)
  GI50: 55 µM
SF-295; SF-295, read-out: Log10 TGI (converted)
  IC (TGI): > 100 µM
SF-539; SF-539, read-out: Log10 GI50 (converted)
  GI50: 12.3 µM
SF-539; SF-539, read-out: Log10 TGI (converted)
  IC (TGI): 57.5 µM
SNB-19; SNB-19, read-out: Log10 GI50 (converted)
  GI50: 17.4 µM
SNB-19; SNB-19, read-out: Log10 TGI (converted)
  IC (TGI): > 100 µM
U251; U-251, U251, read-out: Log10 GI50 (converted)
  GI50: 0.0776 µM
U251; U-251, U251, read-out: Log10 TGI (converted)
  IC (TGI): 20 µM
LOX IMVI; [1]
  GI50: 15.1 µM
LOX IMVI; [2]
  IC (TGI): 36.3 µM
MALME-3M
  GI50: > 100 µM
UACC-62; UACC-62, read-out: Log10 GI50 (converted)
  GI50: 0.0263 µM
UACC-62; UACC-62, read-out: Log10 TGI (converted)
  IC (TGI): 0.115 µM
OVCAR-3; OVCAR-3, read-out: Log10 GI50 (converted)
  GI50: 0.0275 µM
OVCAR-3; OVCAR-3, read-out: Log10 TGI (converted)
  IC (TGI): 0.138 µM
OVCAR-4
  IC (TGI): > 100 µM
OVCAR-8; OVCAR-8, read-out: Log10 GI50 (converted)
  GI50: 24.5 µM
OVCAR-8; OVCAR-8, read-out: Log10 TGI (converted)
  IC (TGI): > 100 µM
786-0; 786-0, read-out: Log10 GI50 (converted)
  GI50: > 100 µM
786-0; 786-0, read-out: Log10 TGI (converted)
  IC (TGI): > 100 µM
ACHN; [1]
  GI50: > 100 µM
ACHN; [2]
  IC (TGI): > 100 µM
SN12C; [1]
  GI50: > 100 µM
SN12C; [2]
  IC (TGI): > 100 µM
UO-31; UO-31, read-out: Log10 GI50 (converted)
  GI50: > 100 µM
UO-31; UO-31, read-out: Log10 TGI (converted)
  IC (TGI): > 100 µM
PC-3; PC-3, read-out: Log10 GI50 (converted)
  GI50: 52.5 µM
PC-3; PC-3, read-out: Log10 TGI (converted)
  IC (TGI): > 100 µM
DU-145; DU-145, read-out: Log10 GI50 (converted)
  GI50: 20 µM
DU-145; DU-145, read-out: Log10 TGI (converted)
  IC (TGI): 77.6 µM
HS 578T; [1]
  GI50: > 100 µM
HS 578T; [2]
  IC (TGI): > 100 µM
MDA-N; [1]
  GI50: 16.6 µM
MDA-N; [2]
  IC (TGI): 43.7 µM
BT-549; BT-549, read-out: Log10 GI50 (converted)
  GI50: 17 µM
BT-549; BT-549, read-out: Log10 TGI (converted)
  IC (TGI): 38 µM
HOP-92; HOP-92, read-out: Log10 GI50 (converted)
  GI50: > 100 µM
HOP-92; HOP-92, read-out: Log10 TGI
  IC (TGI): > 100 µM
NCI-H522; NCI-H522, read-out: Log10 GI50 (converted)
  GI50: 5.25 µM
NCI-H522; NCI-H522, read-out: Log10 TGI
  IC (TGI): 21.4 µM

— patent US20040063662A1, “Selenophene anti-tumor agents” (priority 1996, published 2004)
